The source of these data is patent publication US12642270B2, “Substituted thiophene carboxamides, thiophene carboxylic acids and derivatives thereof” (Bayer Aktiengesellschaft, priority 2019, dated 2026).

The first series in a line: Log P by HPLC on reversed phase columns (EEC directive 79/831 Annex V.A8). The settings on record: LogP method [a]; compounds of formula (I), Table 1.1. In kind it is physicochemical. The procedure, abridged:
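Values come from retention times calibrated against alkan-2-ones (3–16 carbons) by linear interpolation, using reversed-phase LC-UV per EEC directive 79/831 Annex V.A8. Acetonitrile gradient 10–95% with 0.1% formic acid [a], 0.001 M ammonium acetate [b] or 0.1% phosphoric acid [c]; several values within one method separated by "+".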
For `O=C(NC1(C(=O)OC2CCC2)CC1)c1sc(Br)c(C(F)F)c1Br` [1.0508], the LogP is 3.57^[a].
On the same count and under the same terms, under `COC(=O)C(NC(=O)c1sc(C(F)F)c(Br)c1Br)C1CC1` (centres unmarked) [1.0515] stands 3.46^[a]; under `CCOC(=O)C1(NC(=O)c2sc(Cl)c(Cl)c2C(F)F)CC1` [1.0414], 3.17^[a]; under `CCOC(=O)C(C)NC(=O)c1sc(Cl)c(Br)c1Br` (centres unmarked) [1.0482], 3.91^[a].
Same read-out and setting: in the case of `CCOC(=O)C1(NC(=O)c2sc(Br)c(Cl)c2F)CCC1` [1.0428] it was 3.73^[a]; in that of `CCCOC(=O)C1(NC(=O)c2sc(C(F)F)c(Br)c2Br)CC1` [1.0519], 3.51^[a]; in that of `CCOC(=O)CNC(=O)c1sc(Br)c(Cl)c1F` [1.0423], 2.92^[a].
Still for that read-out and setting: under `CCOC(=O)C(Cc1ccccc1)NC(=O)c1sc(Cl)c(Cl)c1C(F)F` (centres unmarked) [1.0420] stands 4.33^[a]; under `COC(=O)C(Cc1ccccc1)NC(=S)c1sc(Br)c(Br)c1F` (centres unmarked) [1.0497], 5.32^[a]; under `O=C(NC1(C(=O)OC2CCC2)CC1)c1sc(C(F)F)c(Br)c1Br` [1.0520], 3.67^[a].
In the case of `COC(=O)C1(NC(=O)c2sc(Br)c(C(F)F)c2Br)CCC1` [1.0505], the LogP is 3.25^[a].

Still in this series, the particulars now being: method [a].
For the compound `CCOC(=O)C1(NC(=O)c2sc(Br)c(C(F)F)c2Br)CC1` [1.0648], the LogP is 3.05^[a].
The same measure, in the same setting: in the case of `CCOC(=O)C(NC(=O)c1sc(Br)c(Br)c1Cl)C(C)C` (centres unmarked) [1.0145] it was 4.92^[a]; in that of `CCOC(=O)C(C)NC(=O)c1sc(Br)c(Br)c1Cl` (centres unmarked) [1.0824], 4.01^[a].
Turning to `CCOC(=O)C1(NC(=O)c2sc(Cl)c(Br)c2Cl)CCC1` [1.0182], the LogP is 4.33^[a].
Turning to `COC(=O)C(C)(C)NC(=O)c1sc(Br)c(Cl)c1Br` [1.0840], the LogP was 3.81^[a].
In the case of `O=C(NC1(C(=O)OC2CCC2)CC1)c1sc(Cl)c(Br)c1Cl` [1.0597], the LogP was 4.15^[a].
On to `CCOC(=O)C1(NC(=O)c2sc(Cl)c(Br)c2Cl)CC1` [1.0180], for which the LogP was 3.47^[a].
Same read-out and setting: under `CCOC(=O)[C@H](CO)NC(=O)c1sc(Br)c(Br)c1Cl` [1.0817] stands 2.84^[a]; under `COC(=O)C1(NC(=O)c2sc(Br)c(Br)c2Cl)CC(C)(C)C1` [1.0618], 4.52^[a].
Regarding `CCOC(=O)C(C)NC(=O)c1sc(C#N)c(Br)c1C` (centres unmarked) [1.0823], the LogP was 2.80^[a].
Still for that read-out and setting: in the case of `O=C(NC1(C(=O)OC2CCC2)CCC1)c1sc(Br)c(Br)c1F` [1.0930] it was 4.47^[a]; in that of `N#CNC(=O)C1(NC(=O)c2sc(Br)c(Br)c2F)CC1` [1.0895], 2.38^[a].
Still for that read-out and setting: in the case of `COC(=O)[C@H](CC(N)=O)NC(=O)c1sc(Br)c(Br)c1F` [1.0160] it was 1.94^[a]; in that of `N#CCNC(=O)c1sc(Cl)c(Br)c1F` [1.0645], 2.36^[a]; in that of `CCOC(=O)CCNC(=O)c1sc(Cl)c(Br)c1Cl` [1.0179], 3.54^[a].
On to `CCOC(=O)C(CC(C)C)NC(=O)c1sc(Br)c(Br)c1Cl` (centres unmarked) [1.0147], for which the LogP was 5.19^[a].
On to `CCOC(=O)[C@H](CO)NC(=O)c1sc(Br)c(Br)c1F` [1.0832], for which the LogP was 2.54^[a].
Same read-out and setting: in the case of `CCOC(=O)C(CO)NC(=O)c1sc(C#N)c(Cl)c1Cl` (centres unmarked) [1.0809] it was 2.33^[a]; in that of `COC(=O)CNC(=O)c1sc(Cl)c(C)c1Cl` [1.0892], 2.64^[a]; in that of `N#CNC(=O)CNC(=O)c1sc(Br)c(Br)c1F` [1.0563], 2.17^[a].
On the same count and under the same terms, in the case of `CCOC(=O)CNC(=O)c1sc(Br)c(C(F)F)c1Br` [1.0646] it was 2.92^[a]; in that of `COC(=O)C(CCSC(C)=O)NC(=O)c1sc(Br)c(Br)c1F` (centres unmarked) [1.0553], 3.13^[a]; in that of `CCOC(=O)C(Cc1ccccc1)NC(=O)c1sc(Cl)c(Br)c1Cl` (centres unmarked) [1.0187], 5.04^[a].
Still for that read-out and setting: in the case of `COC(=O)CNC(=O)c1cc(Cl)c(Br)s1` [1.0239] it was 2.23^[a]; in that of `O=C(CNC(=O)c1sc(Br)c(Br)c1F)OCC1CC1` [1.0859], 3.39^[a].
In the case of `C=CCOC(=O)C1(NC(=O)c2sc(C#N)c(Cl)c2Cl)CC1` [1.0912], the LogP was 3.00^[a].
Consider `CNC(=O)C1(NC(=O)c2sc(Cl)c(Cl)c2Br)CC1` [1.0882], for which the LogP is 2.28^[a].
On the same count and under the same terms, under `N#Cc1c(C(=O)NC2(C(=O)OC3CCC3)CC2)sc(Cl)c1Br` [1.0632] stands 3.21^[a]; under `CCOC(=O)C(CC(C)C)NC(=O)c1sc(Cl)c(Br)c1Cl` (centres unmarked) [1.0185], 5.20^[a].

Still in this series, the particulars now being: method [a]: LC-UV, acidic range, 0.1% formic acid in water and acetonitrile.
`O=C(O)c1sc(Cl)c(Br)c1Cl` [II.012]: the LogP is 2.44^[a].
The same measure, in the same setting: in the case of `COC(=O)c1sc(C#N)c(Br)c1Br` [II.054] it was 3.07^[a]; in that of `COC(=O)c1sc(Br)c(Cl)c1F` [II.020], 3.47^[a]; in that of `COC(=O)C(Cc1ccccc1)NC(=O)C(CC(=O)O)NC(=O)c1sc(C#N)c(Br)c1C` (centres unmarked) [I.0501], 2.70^[a].
Still for that read-out and setting: in the case of `O=C(O)c1sc(Br)c(C(F)F)c1Br` [II.078] it was 2.26^[a]; in that of `Cc1c(C(=O)NC2CCSC2=O)sc(C#N)c1Br` (centres unmarked) [I.0829], 2.45^[a]; in that of `N#Cc1c(C(=O)NC2CCOC2=O)sc(Cl)c1Cl` (centres unmarked) [I.0818], 2.02^[a].
The same measure, in the same setting: under `COC(=O)c1cc(C#N)c(Cl)s1` [II.045] stands 2.44^[a]; under `COC(=O)c1sc(Br)c(C(F)F)c1Br` [II.075], 3.54^[a]; under `Cc1c(C(=O)O)sc(Cl)c1Br` [II.014], 2.80^[a].
Turning to `Cc1c(C(=O)O)sc(Br)c1I` [II.018], the LogP is 2.92^[a].
On the same count and under the same terms, in the case of `CCOC(=O)c1sc(Br)c(C#N)c1Cl` [II.091] it was 3.44^[a].

The same series, now with this note: method [a]; compounds of formula (I), Table 1.1.
`CCOC(=O)C1(NC(=O)c2sc(Br)c(Cl)c2C)CCC1` [1.0075]: the LogP was 3.67^[a].
Still for that read-out and setting: under `CCOC(=O)CCNC(=O)c1sc(Cl)c(Br)c1C` [1.0064] stands 3.15^[a].
On to `CCOC(=O)CNC(=S)c1sc(Cl)c(Cl)c1Br` [1.0059], for which the LogP is 4.61^[a].
The same measure, in the same setting: under `CCOC(=O)C(CC(N)=O)NC(=O)c1sc(Cl)c(Br)c1C` (centres unmarked) [1.0036] stands 2.25^[a].
As for `CCOC(=O)C(Cc1ccc(O)cc1)NC(=O)c1sc(Cl)c(Br)c1C` (centres unmarked) [1.0126], the LogP is 3.33^[a].
Take `Cc1c(C(=O)NCC#N)sc(Br)c1Cl` [1.0111]: the LogP is 2.54^[a].

Staying with this series, now noted: method marked [a].
Take `COC(=O)C1(NC(=O)c2cc(Br)c(C(F)(F)F)s2)CC1` [1.0717]: the LogP is 2.87^[a].
Same read-out and setting: in the case of `CCOC(=O)C1(NC(=O)c2sc(C#N)c(Cl)c2Br)CC1` [1.0666] it was 2.76^[a]; in that of `CCOC(=O)C(NC(=O)c1sc(Cl)c(C#N)c1Cl)C(C)C` (centres unmarked) [1.0396], 3.81^[a].
Same read-out and setting: under `COC(=O)C1(NC(=O)c2sc(C#N)c(Cl)c2Br)CC1` [1.0667] stands 2.42^[a]; under `CCOC(=O)C(NC(=O)c1sc(Br)c(Cl)c1C)C1CC1` (centres unmarked) [1.0272], 3.77^[a].
Consider `CCOC(=O)C(CC(C)C)NC(=O)c1sc(Br)c(Br)c1C(F)(F)F` (centres unmarked) [1.0375], for which the LogP is 4.38^[a].
Still for that read-out and setting: under `CCOC(=O)CNC(=O)c1sc(Br)c(Br)c1C(F)(F)F` [1.0367] stands 3.05^[a]; under `COC(=O)C(NC(=O)c1sc(C#N)c(Cl)c1Br)C1CC1` (centres unmarked) [1.0670], 3.07^[a].
Same read-out and setting: under `CCOC(=O)C(Cc1ccccc1)NC(=O)c1sc(F)c(Cl)c1C` (centres unmarked) [1.0301] stands 4.15^[a]; under `NC(=O)C1(NC(=O)c2sc(Br)c(Br)c2Cl)CC1` [1.0787], 2.10^[a].
Regarding `Cc1c(C(=O)NC2(C(N)=O)CC2)sc(C#N)c1Br` [1.0789], the LogP was 1.61^[a].
As to `CCOC(=O)C(NC(=O)c1cc(Cl)c(C#N)s1)C(C)C` (centres unmarked) [1.0389], the LogP was 3.22^[a].
Same read-out and setting: in the case of `COC(=O)C(CCSC)NC(=O)c1sc(Cl)c(Cl)c1C#N` (centres unmarked) [1.0770] it was 3.14^[a]; in that of `CCOC(=O)C(Cc1ccccc1)NC(=O)c1sc(Br)c(C#N)c1Cl` (centres unmarked) [1.0675], 4.06^[a]; in that of `CCOC(=O)C(C)(C)NC(=O)c1sc(Cl)c(Br)c1Br` [1.0701], 4.30^[a].
On the same count and under the same terms, under `CCOC(=O)C1(NC(=O)c2cc(C#N)c(Cl)s2)CC1` [1.0380] stands 2.28^[a].
Still for that read-out and setting: under `O=C(NC(C(=O)O)C1CC1)c1sc(Br)c(Br)c1Cl` (centres unmarked) [1.0293] stands 2.94^[a]; under `COC(=O)C(NC(=O)c1sc(Br)c(Br)c1C(F)(F)F)C1CC1` (centres unmarked) [1.0371], 3.37^[a].
On to `CCOC(=O)C(Cc1ccccc1)NC(=O)c1sc(Cl)c(C#N)c1Cl` (centres unmarked) [1.0398], for which the LogP was 4.05^[a].
On the same count and under the same terms, in the case of `CCOC(=O)C(CCSC)NC(=O)c1sc(Cl)c(C#N)c1Cl` (centres unmarked) [1.0397] it was 3.52^[a]; in that of `COC(=O)C1(NC(=S)c2sc(C#N)c(Br)c2C)CC1` [1.0335], 3.10^[a]; in that of `COC(=O)C(CCSC)NC(=O)c1sc(Br)c(Br)c1Cl` (centres unmarked) [1.0766], 4.04^[a].

Staying with this series, now noted: method marker [a] given with each value; Table 1.1, compounds of formula (I).
Turning to `COC(=O)C(Cc1ccc(Cl)cc1)NC(=O)c1sc(Br)c(Br)c1Cl` (racemic) [1.0940], the LogP was 4.95^[a].
The same measure, in the same setting: under `COC(=O)C(CCSC(C)=O)NC(=O)c1sc(Br)c(Br)c1Cl` (centres unmarked) [1.1025] stands 3.98^[a]; under `COC(=O)C(C)(C)NC(=O)c1sc(Cl)c(Cl)c1C(F)F` [1.1070], 3.16^[a].
On the same count and under the same terms, under `CC(C)(NC(=O)c1sc(Br)c(Br)c1Cl)C(=O)O` [1.1023] stands 2.81^[a].
As for `C#CCOC(=O)C1(NC(=O)c2sc(C#N)c(Br)c2C)CC1` [1.0963], the LogP is 2.61^[a].
For the compound `CCOC(=O)CN(C(=O)c1sc(Cl)c(Br)c1Cl)C1CC1` [1.0936], the LogP was 3.80^[a].
